Tests used:
Type in all cases: cell-based, human
[1] = tested on: MAT2A; assay: MAT2A mRNA levels by real-time PCR in HT-29 cells; conditions: for MAT2A mRNA levels after growth factor: growth factor 100 ng/ml
Protocol: (§1) HT-29 and RKO cells were obtained from the Cell Culture Core of the USC Liver Disease Research Center and grown according to instructions provided by the American Type Culture Collection (ATCC, Rockville, Md.). Prior to treatment with growth factors, SAMe or MTA, medium was changed to 0.1% FBS overnight.
RNA interference (RNAi) experiments were performed using Lipofectamine RNAiMax (Invitrogen) according to the manufacturer's instructions. Small interfering RNA (siRNA) oligonucleotides for MAT2A and scrambled siRNA were synthesized by the USC Norris Comprehensive Cancer Center Microchemical Core Laboratory, and annealed to form duplexes. Stealth RNAi for MAT2A and Stealth RNAi negative control duplexes were synthesized by Invitrogen (Carlsbad, Calif.). The following siRNA sequences were used: si-MAT2A #1, 5′-[…]-3′ (sense) and 5′-[…]-3′ (antisense); si-control with scrambled sequence (negative control siRNA having no perfect matches to known human genes), 5′-[…]dTdT-3′ (sense) and 5% […]dTdT-3′ (antisense); stealth RNAi-MAT2A #5, 5′-[…]-3′ (sense) and 5′-[…]-3′ (antisense). […]
(§2) Total RNA was isolated by the EZgeno total RNA isolation kit (Genemega, San Giego, Calif.), and subjected to reverse transcription (RT) by using M-MLV Reverse transcriptase (Invitrogen). 2 μl of RT product was subjected to quantitative real-time PCR analysis. The primers and TaqMan probes for MAT2A, MAT2β and Universal PCR Master Mix were purchased from ABI (Foster City, Calif.). Hypoxanthine phosphoribosyl-transferase 1 (HPRT1) and ubiquitin C (UBC) were used as housekeeping genes (48). The thermal profile consisted of 1 cycle at 95° C. for 15 minutes followed by 40 cycles at 95° C. for 15 seconds and at 60° C. for 1 minute. The expression of MAT2A and MAT2β was checked by normalizing the Ct of MAT2A and MAT2β to that of the control housekeeping gene (HPRT1 or UBC) (49). The delta Ct obtained was used to find the relative expression of MAT genes according to the formula: Relative expression=2·^ΔCt, where ΔCt=ΔCt of MAT genes in colon cancer or treated cells—ΔCt of MAT genes in normal colon or control cells.

[2] = tested on: MAT2A; assay: MAT2A mRNA levels by real-time PCR in RKO cells; conditions: for MAT2A mRNA levels after growth factor / MAT2A expression: RKO cells; for MAT2A mRNA levels after growth factor: growth factor 100 ng/ml
Protocol: as §1
RNA interference (RNAi) experiments were performed using Lipofectamine RNAiMax (Invitrogen) according to the manufacturer's instructions. Small interfering RNA (siRNA) oligonucleotides for MAT2A and scrambled siRNA were synthesized by the USC Norris Comprehensive Cancer Center Microchemical Core Laboratory, and annealed to form duplexes. Stealth RNAi for MAT2A and Stealth RNAi negative control duplexes were synthesized by Invitrogen (Carlsbad, Calif.). The following siRNA sequences were used: si-MAT2A #1, 5′-[…]-3′ (sense) and 5′-[…]-3′ (antisense); si-control with scrambled sequence (negative control siRNA having no perfect matches to known human genes), 5′-[…]dTdT-3′ (sense) and 5% […]dTdT-3′ (antisense); stealth RNAi-MAT2A #5, 5′-[…]-3′ (sense) and 5′-[…]-3′ (antisense). Transfection was allowed to proceed 72 hours before collection for different assays.
as §2

[3] = tested on: HT-29 cells; assay: Cellular SAMe and MTA levels in HT-29 cells; conditions: mitogen 100 ng/ml
Protocol: as §1
(§3) Cellular SAMe and MTA levels were measured (51) and polyamine levels were determined (52).

[4] = tested on: HT-29 cells; assay: Polyamine levels in HT-29 cells; conditions: 6 hrs, mitogen 100 ng/ml
Protocol: as §1, §3

[5] = tested on: ornithine decarboxylase (ODC); assay: ODC expression by real-time PCR in HT-29 cells; conditions: 6 hrs, mitogen 100 ng/ml
[6] = tested on: SPD syn; assay: SPD syn expression by real-time PCR in HT-29 cells; conditions: 6 hrs, mitogen 100 ng/ml
[7] = tested on: spermine synthase (SPM syn); assay: SPM syn expression by real-time PCR in HT-29 cells; conditions: 6 hrs, mitogen 100 ng/ml
[8] = tested on: RKO cells; assay: Apoptosis in RKO cells (HOECHST staining, Annexin V)
Protocol: Apoptosis was assessed by HOECHST staining (34). Briefly, RKO cells were grown on coverslips and treated with RNAi#1 for 24 hrs and cells were fixed with paraformaldehyde and stained with 8 μg/ml HOECHST 33258 dye for 30 min. Cells with bright, fragmented, condensed nuclei were identified as apoptotic cells using the Nikon Eclipse TE300 fluorescent microscope. At least 5 random fields (at ×300) were counted.
In these experiments the total treatment duration was limited to 16 hrs to avoid the apoptotic effect. […] Apoptosis was measured by Hoechst staining or Annexin V and propidium iodide staining on flow cytometry.

[9] = tested on: HT-29 cells; assay: Cell growth by MTT assay in HT-29 cells
Protocol: Cell growth was measured by the cell growth determination kit MTT from Sigma (St. Louis, Mo.). The MTT assay measures the cell proliferation rate and reduction in cell viability. HT-29 or RKO cells (1×10^4/well) were plated in 96-well plates and treated with growth factors (all 100 ng/ml), SAMe (0.5 to 5 mM), MTA (0.5 to 1 mM), alone or in combination for 16 hrs in serum-free medium. To determine the effect of MAT2A RNAi on mitogen-induced changes in MTT, cells were first treated with RNAi for 48 hrs followed by mitogen treatment for another 24 hrs.

Row | Substance | MAT2A mRNA levels after growth factor ([1]; HT-29 cells) | MAT2A mRNA levels after growth factor [2] | MTA level ([3]; 6 hrs) | MTA level ([3]; 16 hrs) | SAMe level ([3]; 16 hrs) | Putrescine [4] | Spermidine [4] | Spermine [4] | ODC expression [5] | SPD syn expression [6] | SPM syn expression [7] | further results
1 | IGF-1: insulin-like growth factor-1, mitogen | doubled | doubled | 0.054 ± 0.003 nmol/mg protein | 0.087 ± 0.025 nmol/mg protein | 1.03 ± 0.03 nmol/mg protein | 0.22 ± 0.02 nmol/mg protein | 2.82 ± 0.09 nmol/mg protein | 12.55 ± 2.50 nmol/mg protein | 1.5 ± 0.08 fold of control | 2.2 ± 0.20 fold of control | 1.1 ± 0.03 fold of control | –
2 | RNAi#1: siRNA against MAT2A, sense 5′-ACACAUUGGAUAUGAUGAUTT-3′ (antisense AUCAUCAUAUCCAAUGUGUTT; chemistry not given here) [reference compound] | – | – | – | – | – | – | – | – | – | – | – | lowering of MAT2A expression [2]: 90%; MAT2A expression ([2]; 24 hrs): 25 % of scrambled control; MAT2A expression ([2]; 48 hrs): 9 % of scrambled control; apoptosis ([8]; 24 hrs of RNAi treatment): significant increase in apoptosis; apoptosis ([8]; 48 hrs of RNAi treatment): more pronounced
3 | RNAi#5: stealth RNAi against MAT2A, sense 5′-CCACCUACAGCCAAGUGGCAGAUUU-3′ (antisense AAAUCUGCCACUUGGCUGUAGGUGG; chemistry not given here) [reference compound] | – | – | – | – | – | – | – | – | – | – | – | MAT2A mRNA level ([1]; HT-29 cells, RNAi 48 hrs): 50 % of control; lowering of MAT2A expression ([1]; at 72 hrs): 50%; lowering of MTT value ([9]; HT-29 or RKO cells, RNAi 48 hrs then another 24 hrs): about 30%; mitogenic effect of leptin, IGF-1 and EGF ([9]; RNAi 48 hrs, then growth factors 24 hrs): blocked the ability of leptin, IGF-1 and EGF to fully exert their mitogenic effect; apoptosis ([8]; after 24 hrs): No apoptosis was detected
4 | EGF: Epidermal growth factor, mitogen | doubled | doubled | 0.054 ± 0.001 nmol/mg protein | 0.061 ± 0.010 nmol/mg protein | 0.63 ± 0.06 nmol/mg protein | 0.32 ± 0.01 nmol/mg protein | 2.19 ± 0.23 nmol/mg protein | 12.55 ± 2.04 nmol/mg protein | 1.5 ± 0.07 fold of control | 1.7 ± 0.08 fold of control | 1.1 ± 0.02 fold of control | SAMe level ([3]; 6 hrs): 0.54 ± 0.04 nmol/mg protein
